One compound from patent US12616759B2, “Uses of labeled HSP90 inhibitors” (Sloan-Kettering Institute for Cancer Research, priority 2011, dated 2026) can be followed below.

In data set [1] the test system is HSP90. The settings on record: for IC50: read-out: IC50, binding to HSP90. The procedure:
FIGS. 1A, 1B, 1C, 1D, and 1E. […] Lysate=control cell extract. FIG. 1B HSP90 from MDA-MB-468 extracts was isolated through sequential chemical- and immuno-purification steps. The amount of HSP90 in each pool was quantified by densitometry and values were normalized to an internal standard. […] Representative data of four separate repeats is presented (lower). Expression of HSP90 in the indicated cells was analyzed by Western blot (upper). […] Post-treatment cells were treated with 1 μM PU-FITC. Binding of PU-FITC to the cells was evaluated by flow cytometry and is represented as mean fluorescence intensity (MFI). TEG-FITC is shown as a non-specific binding control. CD45 vs. SSC gating was used to distinguish binding to blast or lymphocytes from the primary specimens. […] Cell viability was evaluated by annexin V/7-AAD staining 96 h post-treatment.
CD34+ cell isolation was performed using CD34 MicroBead Kit and the automated magnetic cell sorter autoMACS according to the manufacturer's instructions (Miltenyi Biotech, Auburn, CA). […] Cell viability was analyzed by flow cytometry (BD Biosciences). […] Cells were stained with CD34-APC, CD38-PE-CY7 and CD45-APC-H7 antibodies (BD Biosciences) in FACS buffer (PBS, 0.05% FBS) at 4° C. for 30 min prior to Annexin V/7-AAD staining. […] At 4 h post treatment, cells were washed twice with FACS buffer. […] At 24 h post treatment, cells were washed twice, and stained with CD34-APC (or CD34-PECy7), CD38-PE-CY7 (or CD38-PE) and CD45-APC-H7 antibodies in FACS buffer at 4° C. for 30 min prior to 7-AAD staining. At 48 h, and 96 h post treatment, cells were stained with CD34-APC (or CD34-PECy7), CD38-PE-CY7 (or CD38-PE) and CD45-APC-H7 antibodies followed by Annexin V-V450 and 7-AAD staining to measure cell viability in blast, lymphocytes and CD34+ cell populations. […] Cells were collected, washed twice, stained for 7-AAD in FACS buffer, and analyzed by flow cytometry. HSP90 staining—Cells were fixed with fixation buffer (BD Biosciences) at 4° C. for 30 min, and permeabilized in Perm Buffer III (BD Biosciences) on ice for 30 min. Cells were stained with anti-HSP90 phycoerythrin conjugate (PE) (F-8 clone, Santa Cruz Biotechnologies; CA) for 60 minutes. Cells were washed and then analyzed by flow cytometry. Normal mouse IgG2a-PE was used as isotype control.

For data set [2], the system named is breast cancer tumor specimens. In words: ex vivo fresh tissue sections of breast cancer patient tumors, apoptosis. It counts as cell-based, human. The text has this:
Test ex vivo the sensitivity of BC samples to PU-H71.
Ex vivo sensitivity examination: Immediately following surgical removal of the mastectomy specimen the tissue is transported to the Tissue Procurement Services (TPS) area of the Pathology suite. Once the lesion is located, tissue is harvested under sterile conditions. The specimen size removed for evaluation is typically 5-10 mm×5-10 mm. Every effort is made to sample the most viable area. Distant from the lesion, a specimen of equivalent size is removed representative of normal breast epithelial tissue. Both specimens are placed in minimal essential media (MEM) with 1% penicillin/streptomycin. A small portion of the lesion and the entire piece of normal breast epithelial tissue undergo a “snap” freeze for future molecular evaluation by WB. The remaining portion of the lesion (mastectomy) is processed for pathological evaluation. For every lesion pathology provides IHC for receptor status, proliferation markers, epithelial markers and one hematoxylin/eosin (H&E) stained slide accompanied by 10 unstained to be further assessed for non-standard biomarkers (e.g. pAKT, BclxL, HSP90 and Hsp70).
From preliminary analyses we have learned that fresh tissue slicing provides a quick and more efficient ex vivo method for HSP90 inhibition evaluation than primary cell isolation. In addition, it preserves the cancer cells in the endogenous environment of the surrounding tissue. This is important since the interaction between stromal cells and tumor cells is known to play a major role in cancer growth and progression. In this method, the tissue (i.e. lesion) is placed in a plastic mold and embedded in 6% agarose. The agarose-embedded tissue is then mounted on the stage of the Vibratome that is submersed in a chilled reservoir (for tissue preservation) containing MEM with 1% penicillin/streptomycin. The tissue is then sliced using metal blades producing serial sections of the lesion that are 200 μm thick. Each section (minus the surrounding agarose-embedding media) is immediately placed in a 24-well tissue culture plate containing MEM with 1% penicillin/streptomycin. From a 5 mm×5 mm piece of tissue approximately 25 sections are produced. This allows for replicate analyses of tissue sections treated with a minimum of 4 doses of the HSP90 inhibitor and one with vehicle only. Replicates can be assayed by both IHC as well as viability assays (automatic plate reader or cytospin preparation) once tissue section undergoes enzymatic dissociation by brief exposure to dispase.
To date, forty-two specimens encompassing all BC subtypes have been acquired. Out of these, nine were of receptor status negative. […] Treatment of triple negative infiltrating ductal carcinoma (IDC) with PU-H71 attained, in a dose-dependent manner, apoptosis of both the primary tumors and lymph node metastases.

Where [3] appears, read: several HER2+, triple-negative and ER+ breast cancers.

Where two headings read alike, the source gives them in different places.

For `CC(C)NCCCn1c(Sc2cc3c(cc2I)OCO3)nc2c(N)ncnc21` [PU-H71], the EC50 – broadly, the concentration needed to bring the measured effect to its halfway point – was […] in data set [1] (read-out: EC50, affinity for normal blood cells, normal blood cells); […] in data set [1] (read-out: half relative binding affinity (EC50), AML blasts); […] in data set [1] (read-out: half relative binding affinity (EC50), CML blasts); […] in data set [1] (read-out: half relative binding affinity (EC50), K562 cells). Moreover, the figures for the IC50 in data set [1] (bcCML) and in data set [1] (normal blood cells) were […] and […], respectively. Further, the “effect on normal and benign tissue” value in data set [2] (48 hour exposure) is listed as “remained unaltered”. Besides, the apoptosis in data set [2] (TNBC partly resistant group, 1-2.5 uM) is recorded as roughly 50%; in data set [2] (TNBC sensitive group, 1 uM), 100%; in data set [2] (TNBC very sensitive group, 0.5 uM), 100%; in data set [2] (resistant, PT #14), “no apoptosis noted at any of the tested concentrations”. Moreover, the “concentration inducing about 50% apoptosis” value in data set [2] (setting [3]) was […]. Moreover, the “concentration inducing about 100% apoptosis” value in data set [2] (setting [3]) came to […].
